The results in this text go back to publication PMC12392461, “Beyond Estrogenicity: A Comparative Assessment of Bisphenol A and Its Alternatives in In Vitro Assays Questions Safety of Replacements” (Environmental Science & Technology, 2025).

For data set [1], the target named is T1, Aryl hydrocarbon receptor (Rattus norvegicus, UniProt P41738).
T1 sequence (P41738 10-853): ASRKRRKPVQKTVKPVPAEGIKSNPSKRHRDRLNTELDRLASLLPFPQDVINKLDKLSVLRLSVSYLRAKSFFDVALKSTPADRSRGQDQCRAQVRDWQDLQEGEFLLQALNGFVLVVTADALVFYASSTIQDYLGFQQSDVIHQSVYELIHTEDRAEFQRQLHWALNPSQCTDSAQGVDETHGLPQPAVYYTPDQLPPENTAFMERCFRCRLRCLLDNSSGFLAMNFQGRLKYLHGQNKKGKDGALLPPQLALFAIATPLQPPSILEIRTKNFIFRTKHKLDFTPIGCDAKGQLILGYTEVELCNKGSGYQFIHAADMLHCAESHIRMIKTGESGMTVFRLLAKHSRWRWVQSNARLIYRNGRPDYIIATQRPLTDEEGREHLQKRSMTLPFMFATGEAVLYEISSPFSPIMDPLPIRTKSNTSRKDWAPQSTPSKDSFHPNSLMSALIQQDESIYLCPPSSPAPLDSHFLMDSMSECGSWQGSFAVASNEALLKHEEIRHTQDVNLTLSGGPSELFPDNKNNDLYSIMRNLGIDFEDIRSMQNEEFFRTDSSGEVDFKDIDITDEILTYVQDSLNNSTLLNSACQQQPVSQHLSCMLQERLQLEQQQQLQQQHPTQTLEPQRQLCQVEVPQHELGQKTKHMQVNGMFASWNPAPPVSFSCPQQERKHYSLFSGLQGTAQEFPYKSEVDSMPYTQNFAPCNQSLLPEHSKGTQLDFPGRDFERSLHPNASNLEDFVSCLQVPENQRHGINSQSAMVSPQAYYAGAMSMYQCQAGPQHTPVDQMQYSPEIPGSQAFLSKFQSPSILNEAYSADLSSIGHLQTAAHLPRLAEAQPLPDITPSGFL
As to conditions: for EC10, linear: linear model fit; for logEC10: log-logistic model fit; for log(1/EC10) AhR: input of the ToxPi score, values up to 1.00. The text has this: (§1) All bioassay media components and the ERα-UAS-bla GripTite and PPARγ-UAS-bla cells were obtained from Thermo Fisher Scientific (Waltham, MA, USA). AREc32 reporter gene cells based on MCF7 were provided by C. Roland Wolf (Cancer Research UK); AhR CALUX cells (H4L7.5c2 derived from H4IIe) were provided by Michael Denison (UC Davis, USA); and SH-SY5Y cells were purchased from Sigma-Aldrich.
(§2) Cell culture conditions and bioassay protocols including response detection are provided in Text S2.1–2.4 and Table S3. − Cell viability was determined from cell confluency using an IncuCyte S3 Live-Cell Analysis System (Sartorius AG, Essen, Germany) before and after exposure, except for SH-SY5Y cells (live–dead staining with Nuclear Green LcS1 and propidium iodide, Abcam, UK). For metabolic activation experiments, cell viability was assessed using the ToxBLAzer DualScreen Kit (Thermo Fisher Scientific) to capture the remaining toxicity in ERα-UAS-bla GripTite after treatment with the aCYP catalyst (details in Text S2.4).
(§3) For ARE, the concentration that triggered an induction ratio of 1.5 (ECIR1.5) was used as the benchmark value, as detailed in Text S2.5. IC10 values also served as a threshold for data analysis in all assays; only concentrations below IC10 were considered when deriving EC10 or ECIR1.5. […]
(§4) S2: Cell culture and bioassays
(§5) S2.1: Cell Culturing Conditions
All suppliers and sources are given in detail in SI-Excel S3. The bioassay media for the different assays were prepared as follows: Assay medium for ER alpha-UAS-bla GripTite (ERα) and PPAR gamma-UAS-bla 293H (PPARγ) was prepared with 98% Opti-MEM, supplemented with 2% charcoal-stripped FBS, and 100 U/mL penicillin-streptomycin. MitoOxTox and AhR assay medium was comprised of 90% DMEM with GlutaMAX, supplemented with 10% FBS, and 100 U/mL penicillin-streptomycin. Neurotoxicity assay medium consisted of the neurobasal […]
(1 picture or pasted object on this page, not shown here) […]
medium, supplemented with 2% B-27 Supplement and 2 mM GlutaMAX Supplement. SH - SY5Y cells were differentiated with 10 µM all-trans retinoic acid prior to the assay.
S2.2: Cell Seeding and Incubation. For all bioassays, cell suspensions in the respective assay medium were dispensed into each well of 384-well plates using a MultiFlo Dispenser (Biotek, (now Agilent), Winooski, VT, U.S.). After seeding, the plates were incubated at 37° C and 5% CO₂ for […]. The final cell densities and plate types were as follows: Black poly-D-lysine coated 384-well plates (Product No. 354663, Corning Inc., NYC, U.S.) were used for PPARγ:
(§6) 6500 cells/well, ERα: 5000 cells/well. White 384-well plates with a clear bottom (Product No.
781098, Greiner, Kremsmünster, Austria) were utilized for the MitoOxTox assay: 2650

Data set [2] deals with Mitochondrial Membrane Potential. Briefly: cells. To be noted: for EC10, linear / logEC10: MMP bioassay, dosing range all; for EC10, linear: linear model; for logEC10: log-logistic model.
Description: as §1, §2, §3, §4, §5
All suppliers and sources are given in detail in SI-Excel S3. The bioassay media for the different assays were prepared as follows: Assay medium for ER alpha-UAS-bla GripTite (ERα) and […]
2% charcoal-stripped FBS, and 100 U/mL penicillin-streptomycin. MitoOxTox and AhR assay medium was comprised of 90% DMEM with GlutaMAX, supplemented with 10% FBS, and 100 U/mL penicillin-streptomycin. […]
S2.2: Cell Seeding and Incubation. For all bioassays, cell suspensions in the respective assay medium were dispensed into each well of 384-well plates using a MultiFlo Dispenser (Biotek, (now Agilent), Winooski, VT, U.S.). After seeding, the plates were incubated at 37° C and 5% CO₂ for […]. The final cell densities and plate types were as follows: Black poly-D-lysine […]
as §6
NYC, U.S.) for AhR: 3250 cells/well. Black Collagen I coated plates were used (Product No.
S2.3: Chemical Dosing and Assay Analysis Procedures. The dosing procedure and high-throughput assay workflow have been described in detail before. 9 The dosing concentrations […]
Stock solutions were then either

Setting [3] is: Arec32, read-out: EC10, linear transformed.
Setting [4] is: against experimental cytotoxicity.
[5] abbreviates: Arec32, read-out: EC10, MMP (M).

Read-outs that look alike come from different tables or passages of the source.

Take `CC(c1ccccc1)(c1ccc(O)cc1)c1ccc(O)cc1` [BPAP, 4,4'-(1-Phenylethylidene)bisphenol]: in data set [1] (Bioassay AhR, dosing range all), the “EC10, linear” value is given as “no effect” and the logEC10 result is recorded as “no effect”. The EC10 in data set [2] (setting [3]) was 2.84e-05 M. Moreover, in data set [2], the “EC10, linear” value is listed as “no effect” and the logEC10 result is listed as “no effect”.
As to `COC(=O)C(c1ccc(O)cc1)c1ccc(O)cc1` [Bz, Methyl bis(4-hydroxyphenyl)acetate], the “EC10, AhR (M)” value in data set [1] is reported as 6.20 × 10^–5 M. For the same compound, in data set [1] (Bioassay AhR, dosing range all), the “EC10, linear transformed” value worked out at 5.80E-05; the “EC10, linear” value is 6.20E-05; the logEC10 was -3.94. Also, the SR-ScoreAhR in data set [1] (SR-Score, sigma k=1, x=5) amounted to 0.0375. Besides, in data set [1] (against baseline cytotoxicity), the “Specificity ratio (SRbaseline) SRAhR” value is listed as 5.57. Also, in data set [1] (setting [4]), the “Specificity ratio (SRcytotoxicity) SRAhR” value amounted to 1.75. For the same compound, the “EC10, AhR” value in data set [1] (effect) came out at 62 µM. For the same compound, the EC10 in data set [2] (Arec32, read-out: EC10, linear) was determined as 3.72e-05 M. In addition, in data set [2] (setting [3]), the EC10 was 5.74e-05 M. Further, the EC10 in data set [2] (Arec32, read-out: logEC10) was 6.46e-05 M. Also, the “log(1/EC10) MMP” value in data set [2] (input of the ToxPi score, values up to 1.00) came out at 0.84.
With `CC(C)c1cc(C(C)(C)c2ccc(O)c(C(C)C)c2)ccc1O` [BPG, 2,2-Bis(4-hydroxy-3-isopropylphenyl)propane], the “EC10, linear” value in data set [1] (Bioassay AhR, dosing range all) is recorded as “no effect”. The logEC10 result in data set [1] (Bioassay AhR, dosing range all) is recorded as “no effect”. In addition, the “log(1/EC10) AhR” value in data set [1] is on record as 0.96. Besides, the EC10 is 3.12e-06 M in data set [2] (Arec32, read-out: EC10, MMP); 3.12e-06 M in data set [2] (setting [5]); 2.65e-06 M in data set [2] (Arec32, read-out: EC10, linear); 3.08e-06 M in data set [2] (setting [3]); 3.09e-06 M in data set [2] (Arec32, read-out: logEC10). The “Specificity ratio (SRbaseline) SRMMP” value in data set [2] (against baseline cytotoxicity) is on record as 1.70. Besides, in data set [2] (setting [4]), the “Specificity ratio (SRcytotoxicity) SRMMP” value is 2.79. In data set [2] (relative to BPA), the “Relative effect potency REPMMP” value is 8.97.
Consider `Oc1ccc(C(c2ccc(O)cc2)(C(F)(F)F)C(F)(F)F)cc1` [BPAF, 4,4'-(1,1,1,3,3,3-Hexafluoropropane-2,2-diyl)diphenol], for which, in data set [1] (Bioassay AhR, dosing range all), the “EC10, linear” value is on record as “no effect”. Moreover, the logEC10 entry in data set [1] (Bioassay AhR, dosing range all) is “no effect”. In data set [1], the “log(1/EC10) AhR” value was found to be 0.92. Besides, the EC10 in data set [2] (Arec32, read-out: EC10, MMP) was 5.32e-06 M; in data set [2] (setting [5]), 5.32e-06 M; in data set [2] (Arec32, read-out: EC10, linear), 3.05e-06 M; in data set [2] (setting [3]) it was 5.27e-06 M; in data set [2] (Arec32, read-out: logEC10) it was 5.37e-06 M.
`CC1(C)C(O)C(C)(C)C1O` (racemic) [r-TMCD, 2,2,4,4-Tetramethyl-1,3-cyclobutanediol (racemate)]: in data set [1] (Bioassay AhR, dosing range all), the “EC10, linear” value is “no effect” and the logEC10 entry is reported as “no effect”. In addition, in data set [2], the “EC10, linear” value was “no effect” and the logEC10 result was “no effect”.
